The results in this text go back to PubChem BioAssay (NCI).

What is called TGI is the concentration at which net growth stops. A high value points to lower sensitivity of the cells. As a reminder, the GI50 is the concentration that inhibits growth by half.

SMILES strings stand for the structures. Where “and” joins values, the source holds several entries; their conditions need not be identical. Equal entries are not always repeated.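 Cells were grown in 96-well plates and exposed to each compound for 48 hours at five concentrations; endpoints were interpolated linearly between bracketing concentrations, or set to the highest concentration if not reached. Abbreviation: GI50, concentration required for 50% inhibition of growth. At the TGI there is no net growth.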

Among the test systems are HCT-15 colon; HS 578T breast; HT29 colon; M14 melanoma; OVCAR-3 ovarian; SK-OV-3 ovarian; SW-620 colon; TK-10 renal; UACC-62 melanoma; EKVX NSCLC.
Experiment in all cases: DTP human tumour cell line panel, 48 h

With `CN(C)c1ccc(/C=C/c2ccnc3ccc4ccccc4c23)cc1`, the TGI in the assay with HCT-15 colon, with HS 578T breast, with HT29 colon, in the assay with M14 melanoma, in the assay with OVCAR-3 ovarian and with SK-OV-3 ovarian was greater than 100 µM each time. Moreover, the figures for the TGI with SW-620 colon, in the assay on TK-10 renal and in the assay on UACC-62 melanoma were greater than 100 µM, 49.9 µM and greater than 100 µM, respectively.

As to `COc1cc(-c2nc(-c3nnc(-c4ccc(F)c(Cl)c4)o3)c3ccccn23)cc(OC)c1OC`, the GI50 in the assay with EKVX NSCLC was 4.19 µM; in the assay with HCT-15 colon, 4.55 µM; in the assay on HS 578T breast it was 2.51 µM; in the assay with M14 melanoma, 3.27 µM; in the assay on OVCAR-3 ovarian, 2.76 µM; with SW-620 colon it was 3.05 µM. Besides, the GI50 with TK-10 renal was 2.4 µM. Further, the TGI is greater than 100 µM with EKVX NSCLC; greater than 100 µM in the assay with HCT-15 colon; 29.2 µM in the assay on HS 578T breast; greater than 100 µM with M14 melanoma; 8.69 µM in the assay with OVCAR-3 ovarian; greater than 100 µM in the assay on SW-620 colon. The total growth inhibition concentration (TGI) in the assay on TK-10 renal stood at 5.9 µM.

On to `COc1cc(-c2cc(-c3nc4cc(Cl)c(Cl)cc4[nH]3)[nH]n2)cc(OC)c1OC`, for which the GI50 in the assay with HCT-15 colon was 2.89 µM; with HS 578T breast, 4.53 µM; in the assay with HT29 colon, 3.42 µM; in the assay on M14 melanoma, 3.57 µM; with OVCAR-3 ovarian, 4.05 µM; with SK-OV-3 ovarian, 17.3 µM. The GI50 in the assay on SW-620 colon is 4.47 µM; in the assay on TK-10 renal, 4.61 µM; with UACC-62 melanoma, 1.94 µM. The TGI with HCT-15 colon is 11.8 µM; with HS 578T breast it was greater than 100 µM; with HT29 colon it was 12.5 µM; in the assay on M14 melanoma, 13.3 µM; in the assay on OVCAR-3 ovarian it was 15.4 µM; with SK-OV-3 ovarian, 53 µM. The results for the TGI in the assay on SW-620 colon, with TK-10 renal and in the assay with UACC-62 melanoma were 19.1 µM, 15.5 µM and 4.31 µM, respectively.

On to `Cc1cc(Nc2cc(CN3CCOCC3)c3nc(C)c(Cc4ccc(Cl)cc4F)n3n2)n[nH]1`, for which the GI50 is 2.62 µM with HCT-15 colon; 0.915 µM with HS 578T breast; 1.44 µM with HT29 colon; 1.83 µM with M14 melanoma; 3.24 µM in the assay on OVCAR-3 ovarian; 2.02 µM in the assay on SK-OV-3 ovarian. In addition, the results for the GI50 with SW-620 colon, with TK-10 renal and with UACC-62 melanoma were 1.07 µM, 2.14 µM and 2.36 µM, respectively. The TGI with HCT-15 colon turned out to be 14.9 µM; with HS 578T breast, 5.6 µM; with HT29 colon, 12.3 µM; with M14 melanoma it was 14.2 µM; with OVCAR-3 ovarian, 15.3 µM; with SK-OV-3 ovarian it was 6.38 µM. The TGI with SW-620 colon came to 14.3 µM; in the assay on TK-10 renal it was 6.61 µM; in the assay on UACC-62 melanoma it was 11.3 µM.

As for `CN(C)CCNC(=O)c1cccc2cc([N+](=O)[O-])ccc12`, the TGI with EKVX NSCLC was 6.33 µM and 2.28 µM; in the assay on HCT-15 colon, 11.5 µM and 1.38 µM; in the assay on HS 578T breast, 7.16 µM; in the assay with HT29 colon, 4.96 µM and 1.07 µM; in the assay with M14 melanoma, 3.32 µM and 1.2 µM; in the assay with OVCAR-3 ovarian, 11.7 µM and 2.26 µM. In addition, the TGI in the assay with SK-OV-3 ovarian is 33.1 µM and 14.5 µM; in the assay on SW-620 colon it was 17.7 µM and 5.64 µM; with TK-10 renal, 4.74 µM and 0.591 µM. Further, the GI50 with HCT-15 colon was 1.71 µM and 0.196 µM; in the assay with HT29 colon it was 0.681 µM and 0.189 µM; in the assay with M14 melanoma, 1.6 µM and 0.441 µM; with OVCAR-3 ovarian it was 2.36 µM and 0.332 µM; with SK-OV-3 ovarian, 3.48 µM and 0.535 µM; with SW-620 colon, 0.519 µM and 0.18 µM. For the same molecule, the GI50 in the assay on TK-10 renal is 0.816 µM and 0.155 µM.

Take `Cc1coc2c1CC1OC1(C)CCC1OC1(C)C2` (stereo unspecified): the TGI in the assay with EKVX NSCLC, in the assay with HCT-15 colon, in the assay with HS 578T breast, in the assay with M14 melanoma, in the assay on OVCAR-3 ovarian and with SK-OV-3 ovarian was greater than 100 µM each time. In addition, the TGI in the assay with SW-620 colon, in the assay with TK-10 renal and in the assay on UACC-62 melanoma was greater than 100 µM in each case.

`O=C(CCc1ccco1)NC1CCN(CC2(c3ccc(Cl)cc3)CCC2)CC1`: the GI50 is 6.27 µM in the assay on HCT-15 colon; 13.6 µM in the assay with HS 578T breast; 3.44 µM in the assay on HT29 colon; 15.6 µM in the assay with OVCAR-3 ovarian; 16.9 µM in the assay on SK-OV-3 ovarian; 15.5 µM with SW-620 colon. Besides, the GI50 in the assay with TK-10 renal is 14.5 µM; with UACC-62 melanoma, 15.9 µM. The total growth inhibition concentration (TGI) in the assay on HCT-15 colon was determined as 20.3 µM; with HS 578T breast, 31.4 µM; with HT29 colon it was 11.8 µM; in the assay on OVCAR-3 ovarian, 32.4 µM; in the assay on SK-OV-3 ovarian, 32.9 µM; with SW-620 colon it was 30.5 µM. Further, the TGI in the assay with TK-10 renal was determined as 28.3 µM; in the assay with UACC-62 melanoma, 30.8 µM.

Take `CSC1=Nc2c(c(C)c(-c3ccccc3)n2CCCCl)C2=NC(=O)CN12`: the GI50 with EKVX NSCLC is 6.89 µM; in the assay with HCT-15 colon, 4.11 µM; in the assay on HS 578T breast, 6.3 µM; with HT29 colon it was 3.85 µM; in the assay on M14 melanoma it was 3.32 µM; in the assay with OVCAR-3 ovarian, 8.28 µM. The GI50 is 4.79 µM in the assay on SW-620 colon, 8.45 µM in the assay on TK-10 renal and 2.08 µM with UACC-62 melanoma. Besides, the TGI with EKVX NSCLC turned out to be 31 µM; in the assay with HCT-15 colon, 21.4 µM; in the assay on HS 578T breast, 35 µM; with HT29 colon it was 19.5 µM; with M14 melanoma it was 15.2 µM; with OVCAR-3 ovarian, 36.2 µM. The values for the TGI in the assay with SW-620 colon, with TK-10 renal and in the assay with UACC-62 melanoma were 53.5 µM, 78.3 µM and 11.6 µM, respectively.

`COc1ccc2c(c1)C(=O)c1c-2c(OCCN(C)C)nc2cc(OC)ccc12`: the GI50 in the assay with EKVX NSCLC was 2.13 µM; in the assay with HCT-15 colon, 0.475 µM; in the assay on HS 578T breast, 2.84 µM; in the assay on HT29 colon, 0.333 µM; in the assay with M14 melanoma it was 1.51 µM; in the assay on OVCAR-3 ovarian, 1.59 µM. The GI50 in the assay with SW-620 colon was 0.446 µM; in the assay on TK-10 renal it was 3.14 µM; in the assay on UACC-62 melanoma, 2.12 µM. In addition, the TGI amounted to 8.63 µM in the assay on EKVX NSCLC; 2.39 µM in the assay on HCT-15 colon; 9.76 µM with HS 578T breast; 1.37 µM with HT29 colon; 3.05 µM in the assay with M14 melanoma; 4.06 µM in the assay with OVCAR-3 ovarian. Further, the TGI in the assay with SW-620 colon was 1.73 µM; with TK-10 renal it was 13.7 µM; with UACC-62 melanoma, 8.51 µM.
